# Results reported in patent US12570612B2, “Substituted nitrogen heterocyclic compound and anesthetic effect thereof” (priority 2019, dated 2026).
# Where two headings read alike, the source gives them in different places.
# Legend:
# Sprague-Dawley rats [1] = assay: animal or person
# Description: Adult male Sprague-Dawley rats (250-300 g) were selected for the experiment. […] The anesthesia effects of the compounds were assessed in rats using a LORR assay and a period >30 s was considered as an indicator of general anesthesia.
# H295R cell line = assay: Adrenocortical function in vitro test: secretion of cortisol and corticosterone, Group B compounds; format: cell-based; conditions: H295R cells; for EC50: Homo sapiens, NCI-H295R, 0.1-10000 nM, HPLC-MS/MS
# Sprague-Dawley rats [2] = assay: Continuous infusion at 2 times the MIR for 1 hour, Group B compounds; format: in vivo
# Description: Time to recovery of righting reflex from stopping infusion, and time to fully awake from stopping infusion were recorded.
# Sprague-Dawley rats [3] = assay: animal or person; format: in vivo; conditions: LORR, up and down method, tail vein, rats, class symbols
# Excerpt: (§1) Evaluating indicator: The end point of anesthesia: LORR was used as the end point of anesthesia; General anesthesia effect: the disappearance of forepaw righting reflex in rats lasting for 30 seconds is taken as the index of general anesthesia effect; Anesthesia recovery index: the recovery of rat forepaw righting reflex was used as the index of anesthesia recovery.
# Sprague-Dawley rats [4] = assay: Pharmacological effect and adverse reactions under the equivalent dose (2ED50), Group C compounds; format: in vivo
# Excerpt: (§2) Evaluation index: onset time: from the completion of drug injection to the disappearance of forepaw righting reflex in rats; Duration of anesthesia: the time from the disappearance of rat forepaw righting reflex to the recovery of rat forepaw righting reflex; Recovery time of anesthesia: the time from the […] to complete recovery;
# Sprague-Dawley rats [5] = assay: animal or person; format: in vivo; conditions: LORR, up and down method, tail vein, rats, class symbols; remark: listed apart in the source
# Excerpt: as §1, with “the disappearance of forepaw righting reflex (lorr)” for “LORR”
# Sprague-Dawley rats [6] = assay: Pharmacological effect and adverse reactions under the equivalent dose (2ED50), Group D compounds; format: in vivo
# Excerpt: as §2
# [7] = 2ED50, tail vein, rats, n=8, unit min
# [8] = equivalent dose (2ED50), number of rats of n = 8
# [9] = Rattus norvegicus, read-out: ED50
# [10] = equivalent dose (2 × ED50), number of rats of n = 8
structure (smiles),measurement,setting,value
C[C@H](c1ccccc1)n1nncc1C(=O)OC1(C)COC1 [Compound B14],ED50,"Sprague-Dawley rats [1]; Rattus norvegicus, LORR in rats, tail vein, brackets = 95% confidence limit",1 to 2 mg/kg
same,Approximate therapeutic index,Sprague-Dawley rats [1]; rats,>5
same,Minimal lethal dose,Sprague-Dawley rats [1]; rats,>7 mg/kg
same,Corticosterone as an indicator to determine the presence of inhibition,H295R cell line,0
same,Cortisol as an indicator to determine the presence of inhibition,H295R cell line,0
same,EC50,H295R cell line; read-out: EC50 (Corticosterone),> 1000 nM
same,EC50,H295R cell line; read-out: EC50 (Cortisol),> 1000 nM
same,Types and incidence of adverse reactions: Tremor,"Sprague-Dawley rats [2]; continuous infusion 2 x MIR 1 hour, rats affected/rats",Tremor(3/6)
same,Onset time,"Sprague-Dawley rats [2]; continuous tail vein infusion at 2 times the MIR, emulsion, rats",5 to 6 min
CC#CCOCC(=O)c1ccnn1[C@H](C)c1ccccc1 [Compound C1],ED50,Sprague-Dawley rats [3],"++++ (++++ indicates that the measured ED50 is in the range of 2.00-10.00 mg/kg (excluding 2.00 mg/kg, including 6.00 mg/kg))"
same,Righting reflex duration,"Sprague-Dawley rats [4]; 2ED50, tail vein, rats, n=8",0.90 ± 0.30 min
same,Sedation duration,"Sprague-Dawley rats [4]; 2ED50, tail vein, rats, n=8",9.06 ± 1.21 min
same,Onset time,Sprague-Dawley rats [4]; [7],<1 min
same,Adverse reaction: Convulsions,Sprague-Dawley rats [4]; [8],0
same,"Adverse reaction: Cough, broken-winded",Sprague-Dawley rats [4]; [8],0
same,Adverse reaction: Euphoria,Sprague-Dawley rats [4]; [8],2
same,Adverse reaction: Red urine,Sprague-Dawley rats [4]; [8],8
same,"Adverse reaction: Slower breathing, Tetany convulsion",Sprague-Dawley rats [4]; [8],0
same,"Adverse reaction: Systemic stiffness, Convulsions, Opisthotonus",Sprague-Dawley rats [4]; [8],0
same,Adverse reaction: Tongue stretching,Sprague-Dawley rats [4]; [8],1
same,Adverse reaction: Tremor,Sprague-Dawley rats [4]; [8],0
same,Adverse reaction: the four limbs rigidity,Sprague-Dawley rats [4]; [8],0
C[C@H](c1ccccc1)n1cncc1C(=O)COCC1CCC1 [Compound C29],ED50,Sprague-Dawley rats [3]; [9],2 to 10 mg/kg
CC(=O)OCC(=O)c1cncn1[C@H](C)c1ccccc1 [Compound C53],ED50,Sprague-Dawley rats [3]; [9],10 to 20 mg/kg
CC#CC(=O)c1cncn1[C@H](C)c1ccccc1 [Compound C54],ED50,Sprague-Dawley rats [3]; [9],20 to 30 mg/kg
CC(=O)COCC(=O)c1c(F)ncn1[C@H](C)c1ccccc1 [Compound C84],ED50,Sprague-Dawley rats [3]; [9],10 to 20 mg/kg
CCOC(OC)(OC)C(=O)c1ccnn1[C@H](C)c1ccccc1 [Compound D3],ED50,Sprague-Dawley rats [5]; [9],2 to 6 mg/kg
same,Righting reflex duration,"Sprague-Dawley rats [6]; 2ED50, tail vein, rats, n=8",1.25 ± 0.27 min
same,Sedation duration,"Sprague-Dawley rats [6]; 2ED50, tail vein, rats, n=8",6.26 ± 1.50 min
same,Onset time,Sprague-Dawley rats [6]; [7],<1 min
same,Adverse reaction: Convulsions,Sprague-Dawley rats [6]; [10],0
same,"Adverse reaction: Cough, broken-winded",Sprague-Dawley rats [6]; [10],0
same,Adverse reaction: Euphoria,Sprague-Dawley rats [6]; [10],0
same,Adverse reaction: Four limbs rigidity,Sprague-Dawley rats [6]; [10],1
same,Adverse reaction: Red urine,Sprague-Dawley rats [6]; [10],8
same,"Adverse reaction: Slower breathing, Tetany convulsion",Sprague-Dawley rats [6]; [10],0
same,"Adverse reaction: Systemic stiffness, Convulsions, Opisthotonus",Sprague-Dawley rats [6]; [10],0
same,Adverse reaction: Tongue stretching,Sprague-Dawley rats [6]; [10],0
same,Adverse reaction: Tremor,Sprague-Dawley rats [6]; [10],1
CC#CCOCC(OC)(OC)C(=O)c1cncn1[C@H](C)c1ccccc1 [Compound D73],ED50,Sprague-Dawley rats [5],+++++ (+++++ indicates that the measured ED50 is greater than 6.00 mg/kg (excluding 6.00 mg/kg))
CCC(CC)OC(=O)C(=O)c1cncn1[C@H](C)c1ccccc1 [Compound D83],ED50,Sprague-Dawley rats [5]; [9],> 6 mg/kg
CC#CCOC(=O)C(=O)c1cncn1[C@H](C)c1ccccc1 [Compound D84],ED50,Sprague-Dawley rats [5]; [9],2 to 6 mg/kg
